In paper PMC11876601 (Molecular Systems Biology, 2025):
Several values for one entry are separate records, joined by “and”; a condition that tells them apart may be missing. Equal entries are not always repeated. Where two headings read alike, the source gives them in different places.

Key:
[1] = test system: 13 PDAC cell lines; assay: Phenotypic drug combination viability screen (ATPlite, 72 h), cell line panel; format: cell-based, human; conditions: Homo sapiens
[2] = test system: AsPC-1 cells; assay: Cell proliferation assay, chemodrug + ATR inhibitor (Incucyte confluence, 72 h); conditions: for Curve bottom / Curve top / Curve slope: AsPC1; for Curve bottom / Curve top: fitted curve, relative response; for Curve slope: fitted dose-response curve;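 for all read-outs here: underlying read-out for every value is AsPC-1 confluence after 72 h incubation at 37 °C and 5% CO2, divided by that well's starting confluence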
Method: Cells were seeded at 5000 cells/well into 96-well flat bottom plates (Eppendorf) and allowed to attach overnight. […] Cells were incubated for 72 h at 37 °C and 5% CO2. Cell confluence readouts at 72 h were either normalized to their initial confluence using the Incucyte software (AsPC-1) or used without prior normalization (all others). […] Each experiment was performed in triplicates, the data was plotted as mean ± standard deviation (s.d.).

[3] = Experiment GEM alone in the Berzosertib series
[4] = Experiment GEM alone in the Ceralasertib series
[5] = Experiment GEM alone in the Elimusertib series
[6] = Experiment GEM alone in the Gartisertib series

Nc1ccn([C@@H]2O[C@H](CO)[C@@H](O)C2(F)F)c(=O)n1 [GEM, Gemcitabine]
EC50 ([1]; read-out: EC50,GEM): < 10 nM
EC50 ([1]; read-out: EC50): ≥ 1 nM
Curve bottom [2, 3]: 1.01 and 1.02
Curve top [2, 3]: 0.52 and 0.50
Curve bottom [2, 4]: 0.98 and 0.99
Curve top [2, 4]: 0.56 and 0.44 and 0.46
Curve bottom [2, 5]: 1.00 and 0.96 and 1.04
Curve top [2, 5]: 0.42 and 0.43 and 0.44
Curve slope [2, 5]: 1.10 and 1.63 and 1.11
Curve bottom [2, 6]: 0.99 and 0.98 and 1.02
Curve top [2, 6]: 0.53 and 0.46 and 0.43
Curve slope [2, 6]: 0.94 and 1.48 and 1.05
Raw data (confluence at 72 h/confluence at 0 h) ([2]; Berzosertib experiment, replicate R3, titrated drug dose 1 nM): 3.42
Raw data (confluence at 72 h/confluence at 0 h) ([2]; Berzosertib experiment, replicate R3, titrated drug dose 3 nM): 3.51
Raw data (confluence at 72 h/confluence at 0 h) ([2]; Berzosertib experiment, replicate R3, titrated drug dose 10 nM): 3.46
Raw data (confluence at 72 h/confluence at 0 h) ([2]; Berzosertib experiment, replicate R3, titrated drug dose 30 nM): 3.01
Raw data (confluence at 72 h/confluence at 0 h) ([2]; Berzosertib experiment, replicate R3, titrated drug dose 100 nM): 2.04
Raw data (confluence at 72 h/confluence at 0 h) ([2]; Berzosertib experiment, replicate R1, titrated drug dose 1 nM): 3.13
Raw data (confluence at 72 h/confluence at 0 h) ([2]; Berzosertib experiment, replicate R1, titrated drug dose 3 nM): 3.29
Raw data (confluence at 72 h/confluence at 0 h) ([2]; Berzosertib experiment, replicate R1, titrated drug dose 10 nM): 2.93
Raw data (confluence at 72 h/confluence at 0 h) ([2]; Berzosertib experiment, replicate R1, titrated drug dose 30 nM): 2.52
Raw data (confluence at 72 h/confluence at 0 h) ([2]; Berzosertib experiment, replicate R1, titrated drug dose 100 nM): 2.11
Raw data (confluence at 72 h/confluence at 0 h) ([2]; Berzosertib experiment, replicate R1, titrated drug dose 300 nM): 1.92
Raw data (confluence at 72 h/confluence at 0 h) ([2]; Berzosertib experiment, replicate R2, titrated drug dose 1 nM): 3.67
Raw data (confluence at 72 h/confluence at 0 h) ([2]; Berzosertib experiment, replicate R2, titrated drug dose 3 nM): 3.44
Raw data (confluence at 72 h/confluence at 0 h) ([2]; Berzosertib experiment, replicate R2, titrated drug dose 10 nM): 3.56
Raw data (confluence at 72 h/confluence at 0 h) ([2]; Berzosertib experiment, replicate R2, titrated drug dose 30 nM): 3.03
Raw data (confluence at 72 h/confluence at 0 h) ([2]; Ceralasertib experiment, replicate R1, titrated drug dose 1 nM): 2.79
Raw data (confluence at 72 h/confluence at 0 h) ([2]; Ceralasertib experiment, replicate R1, titrated drug dose 3 nM): 3.19
Raw data (confluence at 72 h/confluence at 0 h) ([2]; Ceralasertib experiment, replicate R1, titrated drug dose 10 nM): 2.64
Raw data (confluence at 72 h/confluence at 0 h) ([2]; Ceralasertib experiment, replicate R1, titrated drug dose 30 nM): 2.39
Raw data (confluence at 72 h/confluence at 0 h) ([2]; Ceralasertib experiment, replicate R1, titrated drug dose 100 nM): 2.12
Raw data (confluence at 72 h/confluence at 0 h) ([2]; Ceralasertib experiment, replicate R2, titrated drug dose 1 nM): 3.88
Raw data (confluence at 72 h/confluence at 0 h) ([2]; Ceralasertib experiment, replicate R2, titrated drug dose 3 nM): 3.93
Raw data (confluence at 72 h/confluence at 0 h) ([2]; Ceralasertib experiment, replicate R2, titrated drug dose 10 nM): 3.66
Raw data (confluence at 72 h/confluence at 0 h) ([2]; Ceralasertib experiment, replicate R2, titrated drug dose 30 nM): 3.19
Raw data (confluence at 72 h/confluence at 0 h) ([2]; Ceralasertib experiment, replicate R2, titrated drug dose 100 nM): 2.36
Raw data (confluence at 72 h/confluence at 0 h) ([2]; Ceralasertib experiment, replicate R2, titrated drug dose 300 nM): 1.88
Raw data (confluence at 72 h/confluence at 0 h) ([2]; Ceralasertib experiment, replicate R3, titrated drug dose 1 nM): 3.42
Raw data (confluence at 72 h/confluence at 0 h) ([2]; Ceralasertib experiment, replicate R3, titrated drug dose 3 nM): 3.64
Raw data (confluence at 72 h/confluence at 0 h) ([2]; Experiment (ATRi) Elimusertib, replicate R1, drug dose (titrated) 1 nM): 3.45
Raw data (confluence at 72 h/confluence at 0 h) ([2]; Experiment (ATRi) Elimusertib, replicate R1, drug dose (titrated) 3 nM): 3.34
Raw data (confluence at 72 h/confluence at 0 h) ([2]; Experiment (ATRi) Elimusertib, replicate R1, drug dose (titrated) 10 nM): 3.17
Raw data (confluence at 72 h/confluence at 0 h) ([2]; Experiment (ATRi) Elimusertib, replicate R1, drug dose (titrated) 30 nM): 2.54
Raw data (confluence at 72 h/confluence at 0 h) ([2]; Experiment (ATRi) Elimusertib, replicate R1, drug dose (titrated) 100 nM): 1.97
Raw data (confluence at 72 h/confluence at 0 h) ([2]; Experiment (ATRi) Elimusertib, replicate R1, drug dose (titrated) 1000 nM): 1.56
Raw data (confluence at 72 h/confluence at 0 h) ([2]; Experiment (ATRi) Elimusertib, replicate R1, drug dose (titrated) 3000 nM): 1.44
Raw data (confluence at 72 h/confluence at 0 h) ([2]; Experiment (ATRi) Elimusertib, replicate R2, drug dose (titrated) 1 nM): 3.86
Raw data (confluence at 72 h/confluence at 0 h) ([2]; Experiment (ATRi) Elimusertib, replicate R2, drug dose (titrated) 3 nM): 3.95
Raw data (confluence at 72 h/confluence at 0 h) ([2]; Experiment (ATRi) Elimusertib, replicate R2, drug dose (titrated) 10 nM): 3.59
